Laboratory results published in the NIST ThermoML archive (doi:10.1007/s10765-009-0593-3).

Assay: xn = mol fraction of the nth substance listed
Conditions: 101 kPa, Liquid; for speed of sound: Pulse-echo method

CCCOCC(C)OCC(C)O (stereo not given) [1-(1-methyl-2-propoxyethoxy)-2-propanol] + CCCCN(CCCC)CCCC
Conditions | mass density, 288.15 K [kg/m3] | mass density, 293.15 K [kg/m3] | mass density, 298.15 K [kg/m3] | mass density, 303.15 K [kg/m3] | mass density, 308.15 K [kg/m3] | speed of sound, 288.15 K [m/s] | speed of sound, 293.15 K [m/s] | speed of sound, 298.15 K [m/s] | speed of sound, 303.15 K [m/s] | speed of sound, 308.15 K [m/s]
x1 = 0.1122 | 794.307 | 790.425 | 786.535 | 782.639 | 778.737 | 1282.3 | 1263 | 1243.9 | 1225 | 1206.3
x1 = 0.1665 | 800.621 | 796.684 | 792.738 | 788.781 | 784.827 | 1282.3 | 1262.8 | 1243.7 | 1224.8 | 1206.1
x1 = 0.2084 | 805.602 | 801.628 | 797.652 | 793.661 | 789.668 | 1282.3 | 1262.9 | 1243.8 | 1224.9 | 1206.2
x1 = 0.2538 | 811.153 | 807.13 | 803.115 | 799.083 | 795.057 | 1282.4 | 1263.2 | 1244.1 | 1225.3 | 1206.5
x1 = 0.313 | 818.607 | 814.554 | 810.479 | 806.404 | 802.329 | 1282.5 | 1264 | 1244.9 | 1226.1 | 1207.4
x1 = 0.3558 | 824.155 | 820.06 | 815.967 | 811.844 | 807.734 | 1282.8 | 1264.8 | 1245.7 | 1227 | 1208.3
x1 = 0.4148 | 832.006 | 827.869 | 823.733 | 819.576 | 815.399 | 1283.3 | 1266.2 | 1247.2 | 1228.5 | 1209.8
x1 = 0.4472 | 836.41 | 832.261 | 828.099 | 823.913 | 819.704 | 1283.7 | 1267.1 | 1248.1 | 1229.4 | 1210.8
x1 = 0.5008 | 843.844 | 839.656 | 835.454 | 831.251 | 826.995 | 1284.5 | 1268.8 | 1249.8 | 1231.2 | 1212.6
x1 = 0.5451 | 850.136 | 845.938 | 841.706 | 837.473 | 833.167 | 1285.5 | 1270.3 | 1251.5 | 1232.8 | 1214.3
x1 = 0.6077 | 859.289 | 855.06 | 850.786 | 846.555 | 842.165 | 1287.2 | 1272.8 | 1254 | 1235.4 | 1217
x1 = 0.6566 | 866.709 | 862.46 | 858.15 | 853.912 | 849.462 | 1288.9 | 1274.9 | 1256.2 | 1237.7 | 1219.3
x1 = 0.7143 | 875.786 | 871.507 | 867.175 | 862.905 | 858.43 | 1291.3 | 1277.5 | 1258.8 | 1240.4 | 1222.1
x1 = 0.7514 | 881.851 | 877.544 | 873.195 | 868.91 | 864.43 | 1293.2 | 1279.3 | 1260.7 | 1242.3 | 1224.1
x1 = 0.8016 | 890.298 | 885.967 | 881.597 | 877.285 | 872.799 | 1296.1 | 1281.7 | 1263.2 | 1245 | 1226.8
x1 = 0.856 | 897.74 | 895.367 | 890.981 | 886.63 | 882.174 | 1299.9 | 1284.4 | 1266.1 | 1247.9 | 1230
x1 = 0.904 | 908.188 | 903.8 | 899.4 | 894.989 | 890.566 | 1303.7 | 1286.8 | 1268.7 | 1250.6 | 1232.8
x1 = 0.9553 | 917.078 | 912.677 | 908.256 | 903.826 | 899.408 | 1308.3 | 1289.5 | 1271.5 | 1253.5 | 1235.9
